Assay results from article PMC9182007, “Statistical Methods in the Study of Protein Binding and Its Relationship to Drug Bioavailability in Breast Milk” (Molecules, 2022).
Where two headings read alike, the source gives them in different places.

Experiments:
[1] = target: T1, human serum albumin (HSA) (Homo sapiens, UniProt P02768)
[2] = target: T1, human serum albumin (HSA); experiment: in vitro; conditions: immobilized hsa column, pH 7.4
[3] = target: T2, bovine serum albumin (BSA) (Bos taurus, UniProt P02769); experiment: NP TLC on plates impregnated with bovine serum albumin; type: binding; conditions: for NP (Rf, BSA-impregnated NP plate): Table S3, NP plate impregnated with 2 mg/mL BSA, pH 7.4 mobile phase
T2 construct: purchased Sigma Aldrich
From the text: (§1) Chromatographic descriptors were obtained in experiments, thin layer chromatography in normal (NP TLC) and reversed mode (RP TLC). The stationary phase was modified with bovine serum albumin (BSA). TLC was the source of retention factor (Rf) values, denoted in statistical models as NP and RP.
(§2) For TLC chromatography, glass plates 20 × 20 cm from Merck, covered with silica gel with the addition of a fluorescent indicator, were used. Normal phase (NP) plates were used with standard Merck TLC Silica gel 60 F254 plates, while in reverse phase (RP) silanized plates RP-2: Merck TLC Silica gel 60 RP-2 F254 were used.
(§3) The stationary phase of the plates, both NP and RP, was modified with an aqueous solution of bovine serum albumin purchased from Sigma Aldrich (bovine serum albumin, lyophilized powder).
(§4) The impregnation of the plates was carried out with a 2 mg/mL solution applied to the surface using a Desaga SG 1 hand sprayer; the plates were then air dried. […] Normal and reversed phase thin layer chromatography (NP TLC and RP TLC respectively) was performed using silica-gel-coated glass plates. Half of them were covered with 2 mg/mL bovine serum albumin solution and half remained pure.
(§5) The mobility of the compounds was also determined on the plates with no protein as a modifier. […] The acetate buffer (20 mM) was prepared by dissolving 1.54 g of ammonium acetate in 1 L of distilled water. The pH was then adjusted with a concentrated ammonia solution using a pH meter. The plates were developed in standard, vertical chromatographic chambers, each time using 100 mL of the mobile phase, after the chamber was previously saturated with solvent vapors for approximately 1 h.
(§6) The unfolded-protein-impregnated plates and the control plates were scanned with a Desaga CD 60 densitometer. The values of the delay factor (Rf) were collected, i.e., the ratio of the distance traveled by the substance to be analyzed to the distance traveled through the front of the mobile phase. […] The experiment was repeated (for both BSA-coated and control plates) and the Rf values pooled are the mean of both series of experiments.

[4] = NP TLC on non-impregnated control plates; type: physicochemical; conditions: for CNP (Rf, control NP plate): Table S3, non-impregnated NP plate, acetonitrile/acetate buffer pH 7.4/methanol 60:20:20
[5] = system: plasma protein; conditions: ref DrugBank [7], cited from earlier work
[6] = HPLC on immobilized artificial membrane column (HPLCIAM); type: physicochemical; conditions: for log k IAM: Table S5, IAM column, pH 7.4; for k IAM: Table S5, retention factor, IAM column, phosphate buffer pH 7.4/acetonitrile 80:20; for kIAM / log kIAM: Table S9, external group
Method: High performance liquid chromatography was performed using immobilized human serum albumin column (HPLCHSA) and immobilized artificial membrane (HPLCIAM). HPLC was the source of the log k values (logarithm of retention factor), log kHSA and log kIAM.
The second experiment was performed using an immobilized artificial membrane (IAM) column. The assay was also performed on a Perkin Elmer Series 200 instrument connected to a UV-VIS spectrometer as the detector. The analytical wavelength was the same for all compounds, at 210 nm. […] The mobile phase was a mixture of 10 mM phosphate buffer pH 7.4 and acetonitrile in the ratio 80:20 (v/v). The phosphate buffer was obtained by dissolving the finished tablet in the appropriate amount of distilled water (1 tablet per 200 mL). In this case, it was not necessary to adjust the pH of the buffer using a pH meter.
The phase flow through the system was set to 0.5 mL/min as recommended by the column manufacturer. The solutions were delivered to the column using an autosampler syringe, the injection size was 10 µL.
The experiment was then repeated and the collected retention rates were the mean values of both series.

[7] = target: T2, bovine serum albumin (BSA); experiment: RP TLC on plates impregnated with bovine serum albumin; type: binding; conditions: Table S4, RP plate impregnated with 2 mg/mL BSA; pH 7.4 mobile phase
From the text: as §1, §2, §3, §4, §5, §6

[8] = RP TLC on non-impregnated control plates; type: physicochemical; conditions: Table S4, non-impregnated RP plate; acetonitrile/acetate buffer pH 7.4/methanol 60:20:20
Method: as §2
Normal and reversed phase thin layer chromatography (NP TLC and RP TLC respectively) was performed using silica-gel-coated glass plates. Half of them were covered with 2 mg/mL bovine serum albumin solution and half remained pure.
as §5, §6

[9] = Table S1, coded 1/0; ref DrugBank [7]; cited from earlier work
[10] = Table S5, retention factor, HSA column, pH 7.4, 25 degrees Celsius
[11] = Table S1, plasma protein binding given as fraction
[12] = Table S6, external group (n = 38), given as fraction

T1 sequence (P02768 25-609): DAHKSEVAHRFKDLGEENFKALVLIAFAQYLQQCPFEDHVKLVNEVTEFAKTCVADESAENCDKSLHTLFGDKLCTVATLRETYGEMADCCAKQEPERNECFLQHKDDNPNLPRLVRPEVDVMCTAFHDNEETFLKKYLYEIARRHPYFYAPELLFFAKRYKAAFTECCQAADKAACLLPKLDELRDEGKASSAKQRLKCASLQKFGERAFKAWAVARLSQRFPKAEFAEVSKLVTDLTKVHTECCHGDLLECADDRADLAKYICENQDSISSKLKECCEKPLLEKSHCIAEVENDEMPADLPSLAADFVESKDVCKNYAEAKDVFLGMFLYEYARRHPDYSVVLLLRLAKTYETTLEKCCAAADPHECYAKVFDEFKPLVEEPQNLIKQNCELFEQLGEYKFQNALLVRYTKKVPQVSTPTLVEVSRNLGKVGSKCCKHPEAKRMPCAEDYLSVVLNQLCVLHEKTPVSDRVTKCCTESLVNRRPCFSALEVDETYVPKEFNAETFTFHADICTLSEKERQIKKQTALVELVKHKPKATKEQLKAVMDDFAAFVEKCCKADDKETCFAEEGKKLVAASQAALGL
T2 sequence (P02769 25-607): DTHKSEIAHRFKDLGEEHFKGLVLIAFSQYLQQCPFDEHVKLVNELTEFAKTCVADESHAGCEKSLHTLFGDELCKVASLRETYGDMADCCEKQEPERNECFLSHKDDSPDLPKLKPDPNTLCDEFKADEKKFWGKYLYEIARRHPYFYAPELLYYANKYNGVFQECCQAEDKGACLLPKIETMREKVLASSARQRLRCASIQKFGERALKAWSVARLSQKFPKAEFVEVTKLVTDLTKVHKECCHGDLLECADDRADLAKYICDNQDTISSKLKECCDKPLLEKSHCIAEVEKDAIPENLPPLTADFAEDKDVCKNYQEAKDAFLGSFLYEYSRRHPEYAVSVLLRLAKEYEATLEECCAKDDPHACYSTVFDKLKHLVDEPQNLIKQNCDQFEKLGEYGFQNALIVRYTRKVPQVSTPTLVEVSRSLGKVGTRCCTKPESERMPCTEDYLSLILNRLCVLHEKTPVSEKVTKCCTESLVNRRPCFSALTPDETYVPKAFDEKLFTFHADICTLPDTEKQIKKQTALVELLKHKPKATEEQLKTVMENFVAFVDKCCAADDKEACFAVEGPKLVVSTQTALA

SMILES | k HSA [1, 10] | chromatographic logD [2] | NP (Rf, BSA-impregnated NP plate) [3] | CNP (Rf, control NP plate) [4] | PB [5, 11] | log k IAM [6] | k IAM [6] | RP (Rf, BSA-impregnated RP plate) [7] | k HSA ([1]; pH 7.4) | CRP (Rf, control RP plate) [8] | CNS+/- [9] | kHSA [1] | PB [5, 12] | kIAM [6] | log kIAM [6] | kHSA ([1]; Table S9, external group) | NP (Rf value from the NP plate impregnated with 2 mg/mL BSA solution) ([3]; Table S8, external group) | CNP (Rf value from the non-impregnated NP plate, control) ([4]; Table S8, external group)
CC(C)NCC(O)COc1cccc2[nH]ccc12 (stereo not drawn) [pindolol] | 1.65 | 0.22 | 0.52 | 0.53 | 0.4 | 0.78 | 6.09 |  |  |  |  |  |  |  |  |  |  | 
CN1CCN=C(c2ccccc2)c2cc(Cl)ccc21 [medazepam] |  | 1.25 | 0.94 | 0.91 |  | 1.54 | 34.65 | 0.65 | 17.86 | 0.66 |  |  |  |  |  |  |  | 
CC[C@H]1OC(=O)[C@H](C)[C@@H](O[C@H]2C[C@@](C)(OC)[C@@H](O)[C@H](C)O2)[C@H](C)[C@@H](O[C@@H]2O[C@H](C)C[C@H](N(C)C)[C@H]2O)[C@](C)(O)C[C@@H](C)CN(C)[C@H](C)[C@@H](O)[C@]1(C)O [azithromycin] | 0.23 | -0.64 | 0.63 | 0.63 | 0.29 | -1.20 | 0.06 | 0.24 |  | 0.24 | 0 |  |  |  |  |  |  | 
CC(=O)S[C@@H]1CC2=CC(=O)CC[C@]2(C)[C@H]2CC[C@@]3(C)[C@@H](CC[C@@]34CCC(=O)O4)[C@H]12 [spironolactone] | 0.82 | -0.09 | 0.96 | 0.98 | 0.9 | 1.13 | 13.38 | 0.77 |  | 0.78 |  |  |  |  |  |  |  | 
CN(C)C(=O)C(CCN1CCC(O)(c2ccc(Cl)cc2)CC1)(c1ccccc1)c1ccccc1 [loperamide] |  | 0.65 | 0.67 | 0.68 |  |  |  | 0.77 | 4.47 | 0.75 |  |  |  |  |  |  |  | 
NCC1(CC(=O)O)CCCCC1 [gabapentin] |  | -0.84 |  |  |  |  |  |  |  |  |  | 0.15 | 0.03 | 1.70 | 0.23 |  |  | 
CCS(=O)(=O)CCn1c([N+](=O)[O-])cnc1C [tinidazole] |  | -0.92 |  |  |  |  |  |  |  |  |  |  | 0.12 | 2.00 | 0.30 | 0.12 | 0.88 | 0.89
CN1C[C@H](C(=O)N[C@]2(C)O[C@@]3(O)[C@@H]4CCCN4C(=O)[C@H](Cc4ccccc4)N3C2=O)C[C@@H]2c3cccc4[nH]cc(c34)C[C@H]21 [dihydroergotamine] |  | -0.64 | 0.75 | 0.72 | 0.93 |  |  | 0.78 | 0.23 | 0.78 | 0 |  |  |  |  |  |  | 
NC(N)=Nc1nc(CSCCC(N)=NS(N)(=O)=O)cs1 [famotidine] | 0.99 | 0 | 0.71 | 0.70 |  |  |  | 0.99 |  | 0.98 |  |  |  |  |  |  |  | 
CCOCCn1c(C2CCN(CCc3ccc(C(C)(C)C(=O)O)cc3)CC2)nc2ccccc21 [bilastine] | 0.67 | -0.17 | 0.44 | 0.46 | 0.87 | -0.26 | 0.55 | 0.72 |  | 0.76 |  |  |  |  |  |  |  | 
Cc1nc2n(c(=O)c1CCN1CCC(c3noc4cc(F)ccc34)CC1)CCCC2 [risperidone] |  | 0.32 |  |  |  | 0.68 | 4.83 |  | 2.11 |  |  |  |  |  |  |  |  | 
CN1CCC(=C2c3ccccc3CC(=O)c3sccc32)CC1 [ketotifen] | 5.83 | 0.77 | 0.36 | 0.34 | 0.75 | 1.34 | 22.04 | 0.74 |  | 0.75 | 1 |  |  |  |  |  |  | 
CC(C)c1nc(N(C)S(C)(=O)=O)nc(-c2ccc(F)cc2)c1/C=C/[C@@H](O)C[C@@H](O)CC(=O)O [rosuvastatin] | 1.96 | 0.29 | 0.89 | 0.9 |  | -0.02 | 0.96 | 0.88 |  | 0.92 | 0 |  |  |  |  |  |  | 
CCCc1nn(C)c2c(=O)[nH]c(-c3cc(S(=O)(=O)N4CCN(C)CC4)ccc3OCC)nc12 [sildenafil] | 1.62 | 0.21 | 0.67 | 0.69 | 0.96 | 1.15 | 14.26 | 0.76 |  | 0.77 | 1 |  |  |  |  |  |  | 
CNCC[C@H](Oc1cccc2ccccc12)c1cccs1 [duloxetine] |  | 0.91 |  |  |  |  |  |  |  |  |  | 8.16 | 0.90 | 2.84 | 0.45 |  |  | 
Cc1ccc(S(=O)(=O)NC(=O)NN2CC3CCCC3C2)cc1 (stereo not drawn) [gliclazide] | 9.69 | 0.99 | 0.95 | 0.95 | 0.94 | -0.55 | 0.28 | 0.80 |  | 0.83 | 1 |  |  |  |  |  |  | 
O=C1CN=C(c2ccccn2)c2cc(Br)ccc2N1 [bromazepam] |  | -0.2 | 0.90 | 0.87 | 0.7 | 0.34 | 2.21 | 0.81 | 0.63 | 0.83 | 1 |  |  |  |  |  |  | 
OC(CNCC(O)C1CCc2cc(F)ccc2O1)C1CCc2cc(F)ccc2O1 (stereo not drawn) [nebivolol] | 7.49 | 0.87 | 0.75 | 0.75 | 0.98 |  |  | 0.40 |  | 0.40 | 1 |  |  |  |  |  |  | 
COC(=O)[C@@H]1CC2=CC(=O)CC[C@]2(C)[C@@]23O[C@@H]2C[C@@]2(C)[C@@H](CC[C@@]24CCC(=O)O4)[C@H]13 [eplerenone] | 0.21 | -0.68 | 0.94 | 0.94 | 0.5 | 0.19 | 1.54 | 0.85 |  | 0.84 | 1 |  |  |  |  |  |  | 
CC(=O)OCC(=O)[C@@]1(O)CC[C@H]2[C@@H]3CCC4=CC(=O)CC[C@]4(C)[C@H]3[C@@H](O)C[C@@]21C [hydrocortisone acetate] | 0.66 | -0.18 | 0.96 | 0.96 | 0.95 | 0.45 | 2.82 |  |  |  |  |  |  |  |  |  |  | 
Cc1cncc(CN2CCC(=C3c4ccc(Cl)cc4CCc4cccnc43)CC2)c1 [rupatadine] | 12.38 | 1.09 | 0.43 | 0.42 | 0.985 | 0.97 | 9.29 | 0.52 |  | 0.55 |  |  |  |  |  |  |  | 
CCN(CC)C(=O)Nc1ccc(OCC(O)CNC(C)(C)C)c(C(C)=O)c1 (stereo not drawn) [celiprolol] | 1.12 | 0.05 | 0.46 | 0.45 | 0.275 | 0.77 | 5.87 | 0.79 |  | 0.75 |  |  |  |  |  |  |  | 
COc1ccc(C(CN(C)C)C2(O)CCCCC2)cc1 (stereo not drawn) [venlafaxine] |  | 0.02 |  |  | 0.27 | 0.92 | 8.25 |  | 1.05 |  |  |  |  |  |  |  |  | 
CN1CCN(C2=Nc3cc(Cl)ccc3Nc3ccccc32)CC1 [clozapine] | 6.84 | 0.84 | 0.46 | 0.45 |  | 1.71 | 50.94 |  |  |  |  |  |  |  |  |  |  | 
COc1ccccc1OCCNCC(O)COc1cccc2[nH]c3ccccc3c12 (stereo not drawn) [carvedilol] | 14.5 | 1.16 | 0.9 | 0.73 | 0.98 |  |  |  |  |  | 0 |  |  |  |  |  |  | 
CC(C)C[C@H](CN)CC(=O)O [pregabalin] |  | -0.87 |  |  |  |  |  |  |  |  |  | 0.14 | 0.00 | 1.65 | 0.22 |  |  | 
